From patent US20170333390A1, “PHYTOCHEMICAL COMPOSITIONS INCLUDING SESAMIN FOR ANTI-INFLAMMATORY, ANTI-CYTOKINE STORM, AND OTHER USES” (CHIANG MAI UNIVERSITY, priority 2009, published 2017) come the findings set out here.

For this experiment, the system named is IL-2 gene expression in LPS induced peripheral blood mononuclear cells (PBMCs). Kind of experiment: IL-2 gene expression relative to GAPDH in LPS induced PBMCs (RT-PCR). The experiment is classed as cell-based. Conditions: 1.0 ug/ml sesamin (culture 4), LPS 20 ng/ml, 24 hours. As to the method: Experiments were conducted to evaluate the effect of particular phytochemical compositions provided by the present disclosure on IL-2 gene expression in specified cells found within a body of a living organism. Cells used for the experiment described in this example are LPS induced peripheral blood mononuclear cells (PBMCs). It is understood by a person having ordinary skill in the art that the PBMCs may be substituted for other immune cells found within the body. It is also understood by a person having ordinary skill in the art that other inducing substances or chemicals besides LPS, for example viral antigens, may also be used for inducing the PBMCs.
Preparation of PBMCs is done by standard isolation techniques or methods known to a person of ordinary skill in the art as with the experiments of example two. In addition, LPS can be obtained from a commercial source, for example Sigma-Aldrich Co. The PBMCs are cultured in 10% fetal calf serum in RPMI1640 medium. Five cultures of PBMCs, i.e. culture 1 to culture 5, were prepared. […]
The amount or level of IL-2 gene expression in the PBMCs was measured or determined using methods or techniques known to a person having ordinary skill in the relevant art. In example three, Real-Time PCR (RT-PCR) was used for quantifying the amount of IL-2 gene expression in the PBMCs.

The structures appear in SMILES notation.

Regarding `c1cc2c(cc1[C@H]1OC[C@H]3[C@@H]1CO[C@@H]3c1ccc3c(c1)OCO3)OCO2` [sesamin], the “increase in IL-2 gene expression relative GAPDH” value is “approximately 220%”.
